Results: paper PMC11053447, “Human ABC and SLC Transporters: The Culprit Responsible for Unspecific PSMA-617 Uptake?” (Pharmaceuticals, 2024)

Legend:
[1] = target: T1, human OCT3 (Homo sapiens, UniProt O75751); assay: SLC transporter substrate assay, HEK293-OCT3-LV vs control HEK293-Mock-LV cells; format: in vitro ADME
T1 construct: host or cells: HEK293-OCT3-LV
T1 sequence (O75751 1-556): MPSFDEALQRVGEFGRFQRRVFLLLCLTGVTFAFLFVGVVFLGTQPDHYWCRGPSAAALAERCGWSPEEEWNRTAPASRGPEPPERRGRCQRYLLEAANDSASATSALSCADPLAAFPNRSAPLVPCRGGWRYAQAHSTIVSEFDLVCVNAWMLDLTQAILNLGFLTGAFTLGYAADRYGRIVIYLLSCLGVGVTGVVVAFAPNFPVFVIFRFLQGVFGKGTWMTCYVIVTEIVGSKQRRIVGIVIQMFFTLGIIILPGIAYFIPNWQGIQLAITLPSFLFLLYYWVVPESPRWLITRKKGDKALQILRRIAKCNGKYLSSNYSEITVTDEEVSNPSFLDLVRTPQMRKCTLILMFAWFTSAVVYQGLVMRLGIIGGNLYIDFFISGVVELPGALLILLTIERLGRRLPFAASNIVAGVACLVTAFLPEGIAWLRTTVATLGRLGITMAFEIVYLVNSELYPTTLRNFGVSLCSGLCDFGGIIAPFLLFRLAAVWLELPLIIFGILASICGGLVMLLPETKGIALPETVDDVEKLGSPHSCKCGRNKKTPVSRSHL
Experimental: SI4. Results of transporter substrate assays (SLC)
Human Incubation Positive control substrate/ Control Special Incubation Assay […]
(Cell line) at 37°C [min] [h] […]
into transfected and control cells.
Fold accumulation = UPTTRP
PSMA-617 in SLC transporters.
NA: not analyzed. Test substances were considered as substrates in case of fold accumulation values > 2 combined with inhibition values higher than 50%.
4.7 Organic cation transporter OCT3
(HEK293-OCT3-LV) and control cells (HEK293-Mock-LV) applying 2- and 20-minute incubation periods, measured in SLC transporter substrate assay. […] Concentrations are nominal.
Table S16: ([α,β-3H]Nal)Lu-PSMA-617-accumulation in OCT3 transporter-expressing (HEK293-OCT3-LV) and control […]
Conditions Accumulation (pmol/mg protein)
Compound Nominal In OCT3 Fold concentration Minutes transporter In control Active accumulation
[µM] expressing cells transport
Positive control (accumulation in cpm)
MPP +: 1-methyl -4-phenylpyridinium.

[2] = target: T2, human OAT1 (Homo sapiens, UniProt Q4U2R8); assay: SLC transporter substrate assay, HEK293-OAT1-LV vs control HEK293-Mock-B-LV cells; conditions: 20 min
T2 sequence (Q4U2R8 1-563): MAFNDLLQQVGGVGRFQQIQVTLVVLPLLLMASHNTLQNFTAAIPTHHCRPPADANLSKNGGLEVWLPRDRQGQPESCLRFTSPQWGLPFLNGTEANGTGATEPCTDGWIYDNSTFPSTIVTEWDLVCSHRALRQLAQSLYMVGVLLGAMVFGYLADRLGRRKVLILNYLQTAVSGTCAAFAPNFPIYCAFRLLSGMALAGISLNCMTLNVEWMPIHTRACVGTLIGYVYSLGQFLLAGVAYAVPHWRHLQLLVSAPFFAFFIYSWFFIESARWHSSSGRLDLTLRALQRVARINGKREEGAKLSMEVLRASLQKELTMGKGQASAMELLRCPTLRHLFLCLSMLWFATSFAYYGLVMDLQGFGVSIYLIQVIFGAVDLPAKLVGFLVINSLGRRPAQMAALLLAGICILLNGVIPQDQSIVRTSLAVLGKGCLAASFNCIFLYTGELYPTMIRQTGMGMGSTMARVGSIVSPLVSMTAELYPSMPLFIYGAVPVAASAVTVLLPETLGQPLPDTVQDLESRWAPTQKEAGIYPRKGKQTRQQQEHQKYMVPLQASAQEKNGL

[3] = 0.03 µM nominal + Probenecid 300 µM
[4] = 0.30 µM nominal + Probenecid 300 µM

[3H]C(c1ccc2ccccc2c1)C([3H])(NC(=O)C1CCC(CNC(=O)CN2CCN(CC(=O)[O-])CCN(CC(=O)[O-])CCN(CC(=O)[O-])CC2)CC1)C(=O)NCCCCC(NC(=O)NC(CCC(=O)O)C(=O)O)C(=O)O.[Lu+3] (stereo not drawn) [([α,β-^3H]Nal)Lu-PSMA-617]
Accumulation in OCT3 transporter expressing cells ([1]; 0.03 µM nominal, 2 min): 0.026 ± 0.005 pmol/mg protein | Accumulation in control cells ([1]; 0.03 µM nominal, 2 min): 0.022 ± 0.002 pmol/mg protein | Accumulation, active transport ([1]; 0.03 µM nominal, 2 min): 0.003 ± 0.005 pmol/mg protein | Fold accumulation ([1]; 0.03 µM nominal, 2 min): 1.15 | Accumulation in OCT3 transporter expressing cells ([1]; 0.03 µM nominal, 20 min): 0.041 ± 0.004 pmol/mg protein | Accumulation in control cells ([1]; 0.03 µM nominal, 20 min): 0.032 ± 0.005 pmol/mg protein | Accumulation, active transport ([1]; 0.03 µM nominal, 20 min): 0.009 ± 0.006 pmol/mg protein | Fold accumulation ([1]; 0.03 µM nominal, 20 min): 1.29 | Accumulation in OCT3 transporter expressing cells ([1]; 0.30 µM nominal, 2 min): 0.351 ± 0.047 pmol/mg protein | Accumulation in control cells ([1]; 0.30 µM nominal, 2 min): 0.277 ± 0.047 pmol/mg protein | Accumulation, active transport ([1]; 0.30 µM nominal, 2 min): 0.074 ± 0.067 pmol/mg protein | Fold accumulation ([1]; 0.30 µM nominal, 2 min): 1.27 | Accumulation in OCT3 transporter expressing cells ([1]; 0.30 µM nominal, 20 min): 0.446 ± 0.098 pmol/mg protein | Accumulation in control cells ([1]; 0.30 µM nominal, 20 min): 0.332 ± 0.047 pmol/mg protein | Accumulation, active transport ([1]; 0.30 µM nominal, 20 min): 0.113 ± 0.109 pmol/mg protein | Fold accumulation ([1]; 0.30 µM nominal, 20 min): 1.34 | Substrate assessment (OCT3) ([1]; 0.03, 0.30 µM, 2, 20 min): no in vitro substrate | Max. transporter-specific fold accumulation, without inhibitor ([1]; 20 min, 0.3 µM): 1.34 | Accumulation in OAT1 transporter expressing cells [2, 3]: 0.04 ± 0.00 pmol/mg protein | Accumulation in control cells [2, 3]: 0.03 ± 0.00 pmol/mg protein | Accumulation, active transport [2, 3]: 0.00 ± 0.00 pmol/mg protein | Fold accumulation [2, 3]: 1.10 | Accumulation in OAT1 transporter expressing cells ([2]; 0.03 µM nominal, no inhibitor): 0.06 ± 0.01 pmol/mg protein | Accumulation in control cells ([2]; 0.03 µM nominal, no inhibitor): 0.05 ± 0.01 pmol/mg protein | Accumulation, active transport ([2]; 0.03 µM nominal, no inhibitor): 0.01 ± 0.01 pmol/mg protein | Fold accumulation ([2]; 0.03 µM nominal, no inhibitor): 1.17 | Accumulation in OAT1 transporter expressing cells [2, 4]: 0.62 ± 0.13 pmol/mg protein | Accumulation in control cells [2, 4]: 0.44 ± 0.10 pmol/mg protein | Accumulation, active transport [2, 4]: 0.18 ± 0.16 pmol/mg protein | Fold accumulation [2, 4]: 1.42 | Accumulation in OAT1 transporter expressing cells ([2]; 0.30 µM nominal, no inhibitor): 0.36 ± 0.02 pmol/mg protein | Accumulation in control cells ([2]; 0.30 µM nominal, no inhibitor): 0.34 ± 0.06 pmol/mg protein | Accumulation, active transport ([2]; 0.30 µM nominal, no inhibitor): 0.01 ± 0.06 pmol/mg protein | Fold accumulation ([2]; 0.30 µM nominal, no inhibitor): 1.04 | Max. transporter-specific fold accumulation, without inhibitor ([2]; 0.03 µM): 1.17 | Uptake via transporter (OAT1) ([2]; absence and presence of probenecid): not taken up | Max. transporter-specific fold accumulation, with inhibitor ([2]; Probenecid, 0.03 µM): 1.10
